How the values were obtained:
dLight1.3b = test: Multi-fiber photometry of dLight1.3b across brain regions; type: in vivo, mouse; conditions: mean ± SEM
Source text: We used a light emitting diode (LED, M470L5 Thorlabs) at the 470-nm central wavelength for excitation of dLight1.3b. To achieve stable continuous operation, LEDs were run at 80% of maximal output power corresponding to an excitation power of ~1 mW/mm^2 per fiber channel. LED light was collimated with the 16 mm condenser lens (ACL25416U-A, Thorlabs). A microscope objective (TL4x-SAP; Thorlabs) coupled excitation light into the respective array of 12-fibers (Sylex). A dichroic beamsplitter (F58-486 dual line, AHF) coupled the excitation light into the objective (TL4x-SAP, Thorlabs) and transmitted the fluorescence in the dLight1.3b emission spectral window. To separate fluorescence signals from residuals of the excitation light and to minimize auto-fluorescence generated in a broader spectral range we used an emission filter (525/50 nm, F37-516, AHF, for dLight1.3b). To image the end face of the fiber array onto the camera we used a 100-mm focal tube lens (TTL100-A, Thorlabs). […]
Fluorescence signals were expressed as percentage ΔF/F0 relative to the fluorescence baseline. The fluorescence baseline was defined as the minimal level of the signal after subtracting the auto-fluorescence baseline, that is the level of fluorescence estimated prior to the mouse connection. Because in our experiment we wanted to estimate the slow DETQ decay times, we fitted the second-order polynomial trend to the recorded fluorescence signals. […] In all measured traces we visually verified the quality of fit. […] To analyse the ΔF/F0 temporal dynamics at multiple temporal scales separately, we decomposed the fluorescence traces with the wavelet transform (cwt function, MATLAB). We separately analysed measurement traces (30 min before and 30 min after the injection). […] After we compared across independent channels and mice contribution of various temporal scales (in the range of 1−30 seconds) to the recorded ΔF/F0. […] To compare the temporal scales recorded before and after the DETQ injection, during the same session, we used a non-parametric Wilcoxon signed-rank test.

Open field behavior = type: in vivo, mouse
Description: For combined locomotion/photometry experiments in the open field (OF) in tethered mice, a 50 × 50 cm arena was used. Fiber photometry was conducted using a Doric photometry rig combined with a filter/mirror minicube set (Doric Lenses), as above. […] Data were sampled at 122 Hz. […] Mice were habituated to the chamber for 3 consecutive days (30 minutes per day). On experimental days, locomotor activity was video recorded and synchronized with fiber photometry signal recording. The baseline DA signal was recorded for 20 minutes, then the mouse received i.p. injection of vehicle or DETQ (10 mg/kg) in interleaved sessions. Following injection, the DA signal was recorded for an additional 90 minutes. The OF chamber was cleaned with ethanol and water between mice. Recording sessions were repeated at 48 hours intervals. Mouse behavior as well as photometry signals were analyzed with a custom-written MATLAB script. Mouse locomotion was computed using the body center point of the animal. The center zone of the arena was defined automatically during behavior data analysis as the 25 × 25 cm square with the central point aligned to the center of the open field. The distance moved and time spent in the center zone were quantified in 10 minutes time bins and as the total during the 90 minutes after ip injections. To test the dose-dependent effects of DETQ on locomotion in untethered mice, mice were injected i.p. with vehicle, DETQ (3, 10 or 30 mg/kg) or cocaine (20 mg/kg) while their locomotor activity was recorded in an OF arena (60 x 60 cm) for 45 min. Videos were recorded with a Logitech C270 camera and analyzed with DeepLabCut (version 2.1.8.2)[84] on an existing open field network. Representative traces were generated with the Anymaze (v7.2) software (Stoelting Co.).

C[C@H]1c2cccc(C(C)(C)O)c2C[C@H](CO)N1C(=O)Cc1c(Cl)cccc1Cl [DETQ, 2-(2,6-dichlorophenyl)-1-((1S,3R)-3-(hydroxymethyl)-5-(2-hydroxypropan-2-yl)-1-methyl-3,4-dihydroisoquinolin-2(1H)-yl)ethan-1-one]
peak ΔF/F0 fluorescence (dLight1.3b; CPu): 28.3 ± 6.27% | peak ΔF/F0 fluorescence (dLight1.3b; NAc): 22.3 ± 6.11% | peak ΔF/F0 fluorescence (dLight1.3b; PFC): 6.8 ± 2.39% | total locomotion or time spent in the center (Open field behavior; tethered mice, DETQ 10 mg/kg): did not observe any effect | locomotion in open field (Open field behavior; untethered mice, 45 min, DETQ 3, 10, 30 mg/kg i.p., cocaine 20 mg/kg): did not have a significant effect
